{"source": "patent US11369613B2", "about": "“Salts and solid form of a BTK inhibitor” (PRINCIPIA BIOPHARMA INC., priority 2014, dated 2022)", "key": {"[1]": {"target": "T1, BTK (Canis lupus familiaris, UniProt A0A8I3P3Z9)", "T1 construct": "from tissue; host or cells: blood of the treated dog", "T1 sequence (A0A8I3P3Z9 1-664)": "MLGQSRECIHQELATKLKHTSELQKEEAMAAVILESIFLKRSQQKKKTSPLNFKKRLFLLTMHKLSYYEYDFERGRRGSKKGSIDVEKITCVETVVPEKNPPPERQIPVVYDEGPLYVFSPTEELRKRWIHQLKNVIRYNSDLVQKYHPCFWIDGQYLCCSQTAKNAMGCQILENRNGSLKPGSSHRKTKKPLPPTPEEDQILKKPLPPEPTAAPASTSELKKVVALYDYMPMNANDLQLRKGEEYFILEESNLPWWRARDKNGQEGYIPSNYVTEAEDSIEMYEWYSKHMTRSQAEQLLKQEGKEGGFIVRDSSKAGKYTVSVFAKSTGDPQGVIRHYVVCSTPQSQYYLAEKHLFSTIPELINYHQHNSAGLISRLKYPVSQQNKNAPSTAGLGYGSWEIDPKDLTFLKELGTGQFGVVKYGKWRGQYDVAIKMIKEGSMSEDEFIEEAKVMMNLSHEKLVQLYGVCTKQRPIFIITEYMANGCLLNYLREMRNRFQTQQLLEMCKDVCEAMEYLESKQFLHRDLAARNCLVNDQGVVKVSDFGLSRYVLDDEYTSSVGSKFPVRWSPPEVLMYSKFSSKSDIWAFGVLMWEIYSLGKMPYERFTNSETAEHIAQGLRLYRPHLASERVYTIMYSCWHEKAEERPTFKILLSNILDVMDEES", "assay": "BTK occupancy in blood in the dog pemphigus foliaceus study", "assay_type": "in vivo", "details": "oral 500 mg daily, blood taken 24 hours after the first dose, read-out: level of BTK occupancy"}, "[2]": {"tested_on": "pemphigus foliaceus", "assay": "Dog pemphigus foliaceus study", "assay_type": "in vivo"}, "[3]": {"assay": "Stability of the free base on drying (thermal stability)", "assay_type": "physicochemical", "details": "drying under vacuum, at less than 45° C.", "source_text": "Isolation of compound (I) as described in PCT Application No. PCT/US2013058614 is less than ideal for large scale synthesis and isolation and therefore handling and formulating of the resulting compound can present challenges. In addition, when isolated as described in PCT Application No. PCT/US2013058614, the isolated compound (I) retains a higher percentage of residual solvent after drying under vacuum at ambient temperature than that allowed under the International Conference on Harmonisation of Technical Requirements for Registration of Pharmaceuticals for Human Use (“ICH”) guidelines (e.g., -ICH limit for class 2 solvents ranges between 50-3880 ppm and for class 3 solvents <5000 ppm).\nHowever, the solids obtained by this method contained high residual solvents (3.9 wt % isopropylacetate and 1.7 wt % heptane)."}, "[4]": {"tested_on": "chronic SLE", "details": "cited from earlier work"}, "[5]": {"tested_on": "ANCA-associated vasculitis", "details": "cited from earlier work"}, "[6]": {"tested_on": "pemphigus vulgaris", "details": "cited from earlier work"}}}
{"compound": "CC(C)(C)/C=C(\\C#N)C(=O)N1CCC[C@@H](n2nc(-c3ccc(Oc4ccccc4)cc3F)c3c(N)ncnc32)C1", "note": "[(R,E)-2-(3-(4-amino-3-(2-fluoro-4-phenoxy-phenyl)-1H-pyrazolo[3,4-d]-pyrimidin-1-yl)piperidine-1-carbonyl)-4,4-dimethylpent-2-enenitrile]", "values": [{"measurement": "receptor occupancy at 500 mg", "setting": "[1]", "value": "~70", "unit": "%"}, {"measurement": "Time to clinical response (improved eating and ambulation)", "setting": "[2]; 30 kg Doberman, oral 500 mg daily, monotherapy", "value": "within three days"}, {"measurement": "Manifestation of pre-clinical response compared with systemic corticosteroid therapy", "setting": "[2]; dog with pemphigus foliaceus, single agent", "value": "as rapid and comparable to that observed with systemic corticosteroid therapy"}, {"measurement": "Corticosteroid-like adverse effects (polyuria, polydipsia, polyphagia, weight gain)", "setting": "[2]; dog, oral 500 mg daily", "value": "No well-known corticosteroid-like adverse effects"}, {"measurement": "Skin lesions by four weeks", "setting": "[2]; dog, oral 500 mg daily, four weeks", "value": "completely healed"}, {"measurement": "Clinical status at one week follow up visit", "setting": "[2]; dog, oral 500 mg daily, one week", "value": "improved general health and commencement of pemphigus lesion healing"}, {"measurement": "Clinical status after two weeks of treatment", "setting": "[2]; dog, oral 500 mg daily, two weeks", "value": "general health of the dog was excellent and skin lesions continued to improve"}, {"measurement": "Corticosteroid-like adverse effects (polyuria, polydipsia, polyphagia, weight gain)", "setting": "[2]; dog, oral 500 mg daily, listed as (R,E)-2-(3-(4-amino-3-(2-fluoro-4-phenoxyphenyl)-1H-pyrazolo [3,4-d]-pyrimidin-1))", "value": "none of the well-known corticosteroid-like adverse effects"}]}
{"compound": "CC(C)(C=C(C#N)C(=O)N1CCC[C@@H](n2nc(-c3ccc(Oc4ccccc4)cc3F)c3c(N)ncnc32)C1)N1CCN(C2COC2)CC1", "note": "[Compound (I), 2-[(3R)-3-[4-amino-3-(2-fluoro-4-phenoxy-phenyl)pyrazolo[3,4-d]pyrimidin-1-yl]piperidine-1-carbonyl]-4-methyl-4-[4-(oxetan-3-yl)piperazin-1-yl]pent-2-enenitrile]", "values": [{"measurement": "Stability of free base (degradation products during drying)", "setting": "[3]", "value": "thermal instability"}, {"measurement": "Stability of free base (degradation products during drying)", "setting": "[3]; listed as free base form", "value": "not very stable"}]}
{"compound": "Belimumab: an anti-Blys antibody", "values": [{"measurement": "Effect on improvement of chronic SLE", "setting": "[4]", "value": "modest and delayed effect on improvement"}, {"measurement": "Patients able to reduce corticosteroid use to <7.5 mg of prednisone", "setting": "[4]; week 40-52", "value": "≤ 21% of patients (Benlysta US Product"}]}
{"compound": "Rituximab: anti-CD20 agent", "values": [{"measurement": "Onset of effect", "setting": "[5]", "value": "Rituximab has delayed effect in ANCA-"}, {"measurement": "Onset of effect", "setting": "[6]", "value": "Rituximab has delayed effect in pemphigus"}, {"measurement": "Time of maximal effect", "setting": "[6]", "value": "vulgaris with maximal effect at 8-12 weeks"}]}
